Where two headings read alike, the source gives them in different places.
Columns and labels:
[1] = test system: LY2264/ABC; experiment: DLBCL PDX model; format: in vivo, mouse; details: LY2264/ABC MyD88, 25 days, QD PO; TL-895 and ibrutinib 25 mg/kg, acalabrutinib 30 mg/kg
Procedure: (§1) All three compounds were formulated in a solution of 20% kleptose (hydroxypropyl β-cyclodextrin) in 50 mM citrate and administered QD PO during the treatment periods given for each model.
(§2) For mean values > 0: %ΔT/ΔC=endtumorvolumetreatment-starttumorvolumetreatment/endtumorvolumecontrol-starttumorvolumecontrol×100
(§3) For mean values ≤ 0 (i.e. regression): %ΔT/ΔC=endtumorvolumetreatment-starttumorvolumetreatment/starttumorvolumecontrol×100
(§4) The research use of patient material in PDX models at Crown Bioscience, XenoSTART and EPO-GmbH was approved by the local Institutional Ethical Review Boards and the patients provided written informed consent. Molecular analysis was performed on samples from each model using the EdgeSeq DLBCL Cell of Origin Assay (HTG Molecular Diagnostics, Tucson, AZ, USA) to confirm ABC-GCB DLBCL subtype.
(§5) Stock mice inoculated with human DLBCL cancer tissues were euthanized by progressive hypoxemia with CO2 and tumors were harvested. Tumor fragments were used at three different contract research organizations for xenotransplantation into different mouse strains for the following models: (1) 6-week-old female nude (NMRI:nu/nu) or CB17-SCID mice (Javier Labs, France): Ly12638, Ly11212, and Ly13005 (Experimental Pharmacology and Oncology Berlin-Buch GmbH [EPO-GmbH], Germany); (2) 6–8-week-old female BALB/c nude or NOD SCID mice (Beijing HFK Bioscience Co., Ltd. Beijing, China): LY0257, LY2214, LY3604, LY2298, LY2264, LY2318, and LY2345 (Crown Bioscience Inc, Taicang, China); and (3) 6–12-week-old female CB-17 SCID mice (CB17/Icr-Prkdc^scid/IcrIcoCrl Charles River Laboratories, Wilmington, MA, USA): ST118B, ST949B, ST359, ST949, ST2761B, ST2963, ST1361, ST2078, ST1735B, ST2902, and ST3497 (XenoSTART, San Antonio, TX, USA).
(§6) When the average tumor volume was within a pre-determined range (100–300 mm^3), mice were assigned to treatment groups to balance the mean starting tumor volumes (n = 5 for all models except LY13005, which was n = 3). […] Tumor volumes were recorded 2–3 times per week. Mean %∆T/∆C was calculated at the end of treatment as described above for MCL models.
(§7) Tumor volume was used as the measure of efficacy for statistical analyses of in vivo xenograft studies. Tumor volume data from individual studies were log-transformed and statistically analyzed using repeated measures analysis of covariance (RM-ANCOVA) to determine significant treatment effects, followed by post hoc Tukey’s test for multiple pairwise comparisons (all α = 0.05) using R software. Day 0 data were used only as covariates in the analyses because tumor measurements on that day were recorded before the first treatments were administered.

[2] = test system: LY12638/GCB; experiment: DLBCL PDX model; format: in vivo, mouse; details: 25 days, QD PO, TL-895 and ibrutinib 25 mg/kg, acalabrutinib 30 mg/kg
Procedure: as §1, §2, §3, §4, §5, §6, §7

[3] = test system: LY13005/ABC; experiment: DLBCL PDX model; format: in vivo, mouse; details: 14 days, QD PO, TL-895 and ibrutinib 25 mg/kg, acalabrutinib 30 mg/kg
Procedure: as §1, §2, §3, §4, §5, §6, §7

[4] = test system: ST1361/GCB; experiment: DLBCL PDX model; format: in vivo, mouse; details: 11 days, QD PO, TL-895 and ibrutinib 25 mg/kg, acalabrutinib 30 mg/kg
Procedure: as §1, §2, §3, §4, §5, §6, §7

[5] = test system: ST2761B/GCB; experiment: DLBCL PDX model; format: in vivo, mouse; details: 24 days, QD PO, TL-895 and ibrutinib 25 mg/kg, acalabrutinib 30 mg/kg
Procedure: as §1, §2, §3, §4, §5, §6, §7

[6] = test system: LY2214/Unc; experiment: DLBCL PDX model; format: in vivo, mouse; details: 17 days, QD PO, TL-895 and ibrutinib 25 mg/kg, acalabrutinib 30 mg/kg
Procedure: as §1, §2, §3, §4, §5, §6, §7

[7] = test system: LY2318/ABC; experiment: DLBCL PDX model; format: in vivo, mouse; details: 14 days, QD PO, TL-895 and ibrutinib 25 mg/kg, acalabrutinib 30 mg/kg
Procedure: as §1, §2, §3, §4, §5, §6, §7

[8] = test system: LY3604/ABC; experiment: DLBCL PDX model; format: in vivo, mouse; details: 17 days, QD PO, TL-895 and ibrutinib 25 mg/kg, acalabrutinib 30 mg/kg
Procedure: as §1, §2, §3, §4, §5, §6, §7

[9] = test system: ST2902/GCB; experiment: DLBCL PDX model; format: in vivo, mouse; details: 22 days, QD PO, TL-895 and ibrutinib 25 mg/kg, acalabrutinib 30 mg/kg
Procedure: as §1, §2, §3, §4, §5, §6, §7

[10] = test system: LY0257/ABC; experiment: DLBCL PDX model; format: in vivo, mouse; details: LY0257/ABC MyD88, 17 days, QD PO; TL-895 and ibrutinib 25 mg/kg, acalabrutinib 30 mg/kg
Procedure: as §1, §2, §3, §4, §5, §6, §7

[11] = test system: LY11212/GCB; experiment: DLBCL PDX model; format: in vivo, mouse; details: 13 days, QD PO, TL-895 and ibrutinib 25 mg/kg, acalabrutinib 30 mg/kg
Procedure: as §1, §2, §3, §4, §5, §6, §7

[12] = test system: ST1735B/GCB; experiment: DLBCL PDX model; format: in vivo, mouse; details: 29 days, QD PO, TL-895 and ibrutinib 25 mg/kg, acalabrutinib 30 mg/kg
Procedure: as §1, §2, §3, §4, §5, §6, §7

[13] = test system: ST23497/GCB; experiment: DLBCL PDX model; format: in vivo, mouse; details: 17 days, QD PO, TL-895 and ibrutinib 25 mg/kg, acalabrutinib 30 mg/kg
Procedure: as §1, §2, §3, §4, §5, §6, §7

[14] = test system: ST118B/ABC; experiment: DLBCL PDX model; format: in vivo, mouse; details: ST118B/ABC MyD88, 19 days, QD PO; TL-895 and ibrutinib 25 mg/kg, acalabrutinib 30 mg/kg
Procedure: as §1, §2, §3, §4, §5, §6, §7

[15] = test system: ST949/GCB; experiment: DLBCL PDX model; format: in vivo, mouse; details: 14 days, QD PO, TL-895 and ibrutinib 25 mg/kg, acalabrutinib 30 mg/kg
Procedure: as §1, §2, §3, §4, §5, §6, §7

[16] = test system: ST2963/GCB; experiment: DLBCL PDX model; format: in vivo, mouse; details: 13 days, QD PO, TL-895 and ibrutinib 25 mg/kg, acalabrutinib 30 mg/kg
Procedure: as §1, §2, §3, §4, §5, §6, §7

[17] = test system: LY2298/ABC; experiment: DLBCL PDX model; format: in vivo, mouse; details: LY2298/ABC MyD88, 16 days, QD PO; TL-895 and ibrutinib 25 mg/kg, acalabrutinib 30 mg/kg
Procedure: as §1, §2, §3, §4, §5, §6, §7

[18] = test system: ST2078/GCB; experiment: DLBCL PDX model; format: in vivo, mouse; details: 20 days, QD PO, TL-895 and ibrutinib 25 mg/kg, acalabrutinib 30 mg/kg
Procedure: as §1, §2, §3, §4, §5, §6, §7

[19] = test system: ST359/GCB; experiment: DLBCL PDX model; format: in vivo, mouse; details: 11 days, QD PO, TL-895 and ibrutinib 25 mg/kg, acalabrutinib 30 mg/kg
Procedure: as §1, §2, §3, §4, §5, §6, §7

[20] = test system: LY2345/ABC; experiment: DLBCL PDX model; format: in vivo, mouse; details: 17 days, QD PO, TL-895 and ibrutinib 25 mg/kg, acalabrutinib 30 mg/kg
Procedure: as §1, §2, §3, §4, §5, §6, §7

[21] = test system: DLBCL; details: cited from earlier work

Row | Compound | %ΔT/ΔC [1] | %ΔT/ΔC [2] [%] | %ΔT/ΔC [3] | %ΔT/ΔC [4] | %ΔT/ΔC [5] [%] | %ΔT/ΔC [6] [%] | %ΔT/ΔC [7] [%] | %ΔT/ΔC [8] | %ΔT/ΔC [9] [%] | %ΔT/ΔC [10] | %ΔT/ΔC [11] [%] | %ΔT/ΔC [12] [%] | %ΔT/ΔC [13] [%] | %ΔT/ΔC [14] [%] | %ΔT/ΔC [15] [%] | %ΔT/ΔC [16] [%] | %ΔT/ΔC [17] | %ΔT/ΔC [18] | %ΔT/ΔC [19] [%] | %ΔT/ΔC [20] [%] | further results
1 | CC#CC(=O)N1CCC[C@H]1c1nc(-c2ccc(C(=O)Nc3ccccn3)cc2)c2c(N)nccn12 [Acalabrutinib] | 48^V % | 262 | 64^V % | 74^V % | 94 | 63 | 102 | 36^V % | 85 | 54^M % | 126 | 80 | 100 | 104 | 72 | 116 | 27^V,I % | 115^I % | 54 | 108 | Combined overall response rate (ORR) ([21]; patients with either ABC- or GCB-DLBCL): 24%
2 | C=CC(=O)N1CCC[C@@H](n2nc(-c3ccc(Oc4ccccc4)cc3)c3c(N)ncnc32)C1 [Ibrutinib] | 74^M % | 121 | 71^M % | 65^V % | 71 | 77 | 86 | 38^V % | 92 | 88^M % | 171 | 75 | 95 | 90 | 86 | 81 | 69^A % | 75^A % | 62 | 118 | ORR ([21]; combined with R-ICE, patients with GCB-DLBCL): 90%; Reported response rate ([21]; patients with ABC-DLBCL): 37%; Reported response rate ([21]; patients with GCB-DLBLC): 5%; ORR ([21]; patients with wild type CD79B ABC-DLBCL): 31%
3 | C=CC(=O)N1CCC(F)(CNc2ncnc(N)c2-c2ccc(Oc3ccccc3)cc2)CC1 [TL-895] | 37^V,I % | 84 | 43^V,I % | 60^V % | 90 | 93 | 104 | 32^V % | 104 | 45^V,I,A % | 115 | 101 | 101 | 68 | 83 | 106 | 38% | 114% | 71 | 120 | Complete responses in patients with DLBCL ([21]; preliminary evidence): 1

— publication PMC10663516 (Scientific Reports, 2023)
